Results published in a compilation of properties of binary mixtures (doi:10.1016/j.molliq.2020.112718).

Assay: xn = mol fraction of the nth substance listed
Conditions: 100 kPa

CCOCC[n+]1ccn(C)c1.C[C@@H](O)[C@H](N)C(=O)[O-] + O
viscosity [mPa·s]
Conditions	298.15 K	303.15 K	308.15 K	313.15 K	318.15 K	323.15 K	328.15 K
x1 = 0.3157	834	538	344	231	167	–	97.8
x1 = 0.3647	889	571	360	–	174.5	–	–
x1 = 0.4246	938	604	376	259	180.6	130.8	102.6
x1 = 0.508	990	638	393	273	187.2	136.2	–
x1 = 0.6189	–	671	410	287	195	143.5	109.6
x1 = 1	1133	730	439	313	207	153.8	–

COCC[n+]1ccn(C)c1.C[C@@H](O)[C@H](N)C(=O)[O-] + O
viscosity [mPa·s]
Conditions	298.15 K	303.15 K	308.15 K	313.15 K	318.15 K	323.15 K	328.15 K
x1 = 0.3313	740	473	–	199.2	139.9	101.7	82.2
x1 = 0.3795	767	500	306	210	148.1	108.5	84.9
x1 = 0.4475	800	529	320	222	155.8	–	88.2
x1 = 0.5347	829	–	332	233	–	–	91.3
x1 = 0.657	852	–	344	242	171.8	–	94.8
x1 = 1	900	625	362	260	184.4	136.8	99.6
